Measurements taken from patent US20110224300A1, “USE OF POTASSIUM 2-(a- HYDROXYPENTYL) BENZOATE IN THE MANUFACTURE OF MEDICAMENTS FOR PREVENTING AND/OR TREATING SENILE [sequence]” (Institute of Mataria Medica, Chinese Academy of Me, priority 2008, published 2011).

Legend:
[1] = test system: SOD; test: SOD activity of brain tissues from permanent 2-VO rats; type: in vivo, rat; settings: for SOD activity in cortex: 21 days
Procedure: (§1) In 10 days after onset of 2-VO, drugs and vehicle were administered orally to rats for 21 days (one time/each day). The spatial learning and memory capability of rats were detected by Morris water maze in the 25-30 days after operation. The Morris water test was commenced at 40 min after drugs treated. The biochemical and pathology assays were conducted later (in 24 h) after behavioral tests.
(§2) The biochemical assays were conducted later (in 24 h) after behavioral testing. Eight rats in each group were anesthetized with ether and sacrificed. The brains were quickly removed and cleaned with ice-cold saline. Then the parietal cortex and hippocampus were isolated. For biochemical analysis, the tissues were weighed and homogenized in ice-cold saline with the proportion of 1:9 (w/v). Homogenization (IKA, Germany) was carried out for 2 min in an ice bath. After the homogenates were centrifuged at 2,000×g for 10 min at 4° C. (Sigma, Germany), the supernatant was used for analytical procedures. The levels of choline acetyltransferase (ChAT) SOD, and MDA activities were determined with commercial colorimetric assay kits (Nanjing Jiancheng Bioengineering Institute, China). The content of protein in the supernatant was determined by Bradford method using BSA as standard.

[2] = test system: ChAT; test: ChAT activity of brain tissues from permanent 2-VO rats; type: in vivo, rat; settings: for activity of ChAT in hippocampus: 21 days
Procedure: as §1, §2

[3] = test system: Aβ(25-35)-induced dementia rats; test: Morris water maze in Aβ(25-35)-induced dementia rats; type: in vivo, Male Wistar rats; settings: Aβ(25-35) rats; for percentage of time in the target quadrant (probe test): vehicle 21.6±1.6%
Procedure: Subjects were tested in a Morris water maze. This test is based on a standardized assessment of spatial learning ability. The water maze apparatus consisted of a circular, stainless pool (120 cm in diameter, 60 cm in height). It was placed in a dimly lit, sound-proof test room. Multiple distant cues around the room (window, cabinets, furniture) were kept in the same location throughout the experiments. The water was filled to a depth of 40 cm at 25±1° C. and was made opaque by adding milk powder to prevent visualization of the platform. A transparent platform (10 cm diameter) was put 1.5 cm below the surface of the water. The tank was divided into four quadrants with the platform in a fixed position in one quadrant. The subjects were placed into the maze facing the pool wall and were allowed two trials per day, 60 s per trial, to find the hidden platform. If the subject found the platform within the 60 s, it was given a 10-s rest period on the platform between trials. If the pedestal was not located within the time allotted, the subject was placed on to the platform and allowed 10 s until the next trial. The escape latency (time to reach the platform) was used to assess acquisition of the water maze task. Sessions were repeated for five consecutive days. On the sixth day, the platform was removed and the rat was allowed to search for the platform for 60 s (probe test). The time in the platform quadrant and latency time to cross platform location were recorded to measure the spatial learning ability without the influence of chance encounters with the platform. The Morris water maze sessions were recorded with a video camera for offline analysis.
Aβ(25-35)-induced dementia model in 10 months of Male Wistar rats with 600 g B.W. was created by slow injection of 15 nmol (volume of 50) aggregation of Aβ (25-35). Sham-operation group was only injected with PBS (volume of 50). After operation, the animals were injected penicillin 200 000 units for 4 days by intraperitoneal injection.
Rats were divided into four experimental groups randomly (10 rats/each group): one sham-operated group, one vehicle control group, and two dl-PHPB-treated groups (39, and 129 mg/kg). At 1 days after operation, drugs and vehicle were administered orally to rats for 14 days (one time/each day). The spatial learning and memory abilities of rats were detected by Morris water maze in the 9-12 days after operation. The testing of Morris water was commenced at 40 min after drugs treated. The biochemical and pathology assays conducted later (in 24 h) after behavioral testing.
The navigation test was performed in 9-12 days after icy Aβ (25-35) by the same method as the before. On the thirteenth day, the platform was removed and the rat was allowed to search for the platform for 30 s (probe test). The time in the platform quadrant and latency time to cross platform location were recorded to measure the spatial learning ability without the influence of chance encounters with the platform.

[4] = test system: SAMP8 mice; test: Step down test in SAMP8 mice; type: in vivo; settings: for step-down latency time: vehicle 0.7±0.2, P<0.01
Procedure: SAMP8 were divided into three experimental groups randomly: one vehicle control group, and two dl-PHPB-treated groups (50, and 160 mg/kg). Drugs and vehicle were administered orally to SAMP8 mice for 35 days (one time/each day). The spatial learning and memory abilities of SAMP8 mice were detected by Morris water maze and DTT-2 jumping apparatus in 31-35 days. The testing was commenced at 40 min after drugs treated. The biochemical and pathology assays conducted later (in 24 h) after behavioral testing.
The step-down avoidance task was performed by using a behavior box (22 cm×15 cm×30 cm each). Each testing chamber has 3 Plexiglas black walls, a clear Plexiglas front wall, metal grid floors and an insulating platform (3 cm diameter, 4 cm height), which is located at one corner of the testing chamber. The metal grids are connected to the output terminals of an electrical stimulator. For the habituation session, each mouse was gently placed on the insulating platform and was allowed to explore in the testing chamber for 3 min before placing back on the platform again. Monophasic pulses (1 ms, 1 Hz, 36 VDC) were continuously delivered for 5 min during the training tria. If the mouse steps down from the platform onto the grid floor, the mouse will be subjected to receive an electric shock until returning to the platform. Then, 24 h after the training, the mice were placed on the platform for assessing their long term memory of retention period. The electric shocks were delivered for 5 min and the latency to step down on the grid with four paws for the first time (step-down latency) and the numbers of errors subjected to shocks within 5 min were recorded.

## CCCCC(O)c1ccccc1C(=O)[O-].[K+] (racemic) [dl-PHPB, Potassium 2-(1-Hydroxypentyl)-benzoate]
[1]; dl-PHPB 13 mg/kg
  SOD activity in cortex: significantly alleviated the increase of SOD activity
[1]; dl-PHPB 39 mg/kg
  SOD activity in cortex: significantly alleviated the increase of SOD activity
[1]; hippocampus, doses not given
  SOD activity in hippocampus: no significant effects
[2]; cortex, data not shown
  ChAT activity in cortex: had no effect
[2]; dl-PHPB 13 mg/kg
  activity of ChAT in hippocampus: did not show significant effects
[2]; dl-PHPB 39 mg/kg
  activity of ChAT in hippocampus: did not show significant effects
[2]; dl-PHPB 129 mg/kg, P<0.05
  activity of ChAT in hippocampus: significantly increased the activity of ChAT
[3]; 39 mg/kg orally, 2nd day of training, P<0.05
  escape latency: shorter than sham group
[3]; 39 mg/kg orally, 3rd to 4th days
  escape latency: shorter than vehicle group
[3]; 39 mg/kg orally, trend only
  percentage of time in the target quadrant (probe test): 24.6±3.0%
[3]; 129 mg/kg orally, 3rd to 4th days, P<0.05 or P<0.01
  escape latency: significantly shorter than vehicle group
[3]; 129 mg/kg orally, sham 32.8±4.0%, p<0.05 vs vehicle
  percentage of time in the target quadrant (probe test): 30.2±2.5%
[3]; dose not specified
  time of the first cross platform (probe test): shorten trend
[4]; 50 mg/kg oral, first day of training, vehicle 8.3±0.6, P<0.01
  numbers of errors subjected to shocks: 5.8±0.5
[4]; 50 mg/kg oral, second day, vehicle 4.6±0.3, P<0.05
  numbers of errors subjected to shocks: 3.4±0.3
[4]; 50 mg/kg oral
  step-down latency time: 5.5±0.8
[4]; 160 mg/kg oral, first day of training, vehicle 8.3±0.6, P<0.001
  numbers of errors subjected to shocks: 4.9±0.5
[4]; 160 mg/kg oral, second day, vehicle 4.6±0.3, P<0.01
  numbers of errors subjected to shocks: 2.1±0.3
[4]; 160 mg/kg oral
  step-down latency time: 10.2±2.4
